The text below walks through data of patent publication US20210387941A1, “Diphenyl-like Compound, Intermediate Thereof, Preparation Method Therefor, Pharmaceutical Composition Thereof And Uses Thereof” (SHANGHAI MAXINOVEL PHARMACEUTICALS CO., LTD., priority 2018, published 2021).

This assay deals with T1, PD-1/PD-L1 (Homo sapiens, UniProt Q9NZQ7).
T1 construct: tag1 or tag2 (identity not disclosed); purchased CisBio 64CUS000C-1
T1 sequence (Q9NZQ7 19-238 limits assumed): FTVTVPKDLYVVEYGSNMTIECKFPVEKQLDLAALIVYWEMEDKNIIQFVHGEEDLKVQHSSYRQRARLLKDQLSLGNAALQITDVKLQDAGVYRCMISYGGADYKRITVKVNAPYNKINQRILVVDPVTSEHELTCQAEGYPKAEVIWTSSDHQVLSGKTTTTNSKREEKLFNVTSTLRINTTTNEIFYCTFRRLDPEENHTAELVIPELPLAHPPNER
Nature of the assay: Homogeneous Time-Resolved Fluorescence (HTRF) binding test. The settings on record: CisBio kit #64CUS000C-1, read-out: IC50 values of compounds binding to PD-1/PD-L1. The protocol:
The binding ability of the compounds of the present disclosure to PD-1/PD-L1 was detected using Homogeneous Time-Resolved Fluorescence (HTRF) binding test.
The purchased kit (CisBio, #64CUS000C-1) contained the reagents needed for experiments, such as PD-1, PD-L1, anti-tag1-Eu, Anti-tag2-XL665, Dilute Buffer and Detection Buffer.
1. The compound was prepared with 100% DMSO to 10 concentrations with a concentration gradient of 3 times.
2. A solution of the compound in DMSO was added into Dilute Buffer, mixed uniformly, and then transferred into 96-well plate.
3. PD-L1 was diluted with Dilute Buffer, and then added into the above 96-well plate.
4. PD-1 was diluted with Dilute Buffer, and then added into the above 96-well plate and incubated at room temperature for 30 minutes.
5. A part of anti-tag1-Eu and a part of Anti-tag2-XL665 were added into Detection Buffer, mixed uniformly and then transferred into the above 96-well plate.
6. The mixed solution in this 96-well plate was incubated at room temperature for 1 hour to 24 hours.
7. HTRF values were read with Envision.
Turning to `Cc1c(/C=C/c2cc(CN[C@@](C)(CO)C(=O)O)ccc2C(F)(F)F)cccc1-c1cccc(/C=C/c2cc(CN[C@@](C)(CO)C(=O)O)ccc2C(F)(F)F)c1C` [Compound 3, (2S)-2-[({3-[(E)-2-(3-{3-[(E)-2-[5-({[(1S)-1-carboxyl-2-hydroxy-1-methylethyl]amino}methyl)-2-(trifluoromethyl)phenyl]ethenyl]-2-methylphenyl}-2-methylphenyl)ethenyl]-4-(trifluoromethyl)phenyl}methyl)amino]-3-hydroxy-2-methylpropanoic Acid], the IC50 came out at 3.2 nM.

With `COCCNCc1ccc(C(F)(F)F)c(/C=C/c2cccc(-c3cccc(/C=C/c4cc(CNCCO)ccc4C(F)(F)F)c3C)c2Cl)c1` [Compound 4, 2-[({3-[(E)-2-(3-{3-[(E)-2-(5-{[(2-methoxyethyl)amino]methyl}-2-(trifluoromethyl)phenyl)ethenyl]-2-chlorophenyl}-2-methylphenyl)ethenyl]-4-(trifluoromethyl)phenyl}methyl)amino]-1-ethanol], the IC50 is 4.3 nM.

With `Cc1c(/C=C/c2cc(CNCCO)ccc2C(F)(F)F)cccc1-c1cccc(-c2cc(CNCCO)ccc2F)c1C` [Compound 10, 2-({[(3-(E)-2-{3-[3-(5-{[(2-hydroxyethyl)amino]methyl}-2-fluoro-phenyl)-2-methylphenyl]-2-methylphenyl}ethenyl)-4-(trifluoromethyl)phenyl]methyl}amino)-1-ethanol], the IC50 is 14 nM.

Turning to `Cc1c(/C=C/c2cc(CN[C@@](C)(CO)C(=O)O)ccc2C(F)(F)F)cccc1-c1cccc(-c2cc(CN[C@@](C)(CO)C(=O)O)ccc2F)c1C` [Compound 11, (2S)-2-[({3-[(E)-2-(3-{3-[5-({[(1S)-1-carboxyl-2-hydroxy-1-methylethyl]amino}methyl)-2-fluorophenyl]-2-methylphenyl}-2-methylphenyl)ethenyl]-4-(trifluoromethyl)phenyl}methyl)amino]-3-hydroxy-2-methylpropanoic acid], the IC50 was 8.7 nM.

Take `COCCOc1ccc(F)c(/C=C/c2cccc(-c3cccc(/C=C/c4cc(CN[C@@](C)(CO)C(=O)O)ccc4C(F)(F)F)c3C)c2C)c1` [Compound 8, (2S)-3-hydroxy-2-[({3-[(E)-2-[3-(3-(E)-{2-[2-fluoro-5-(2-methoxyethoxy)phenyl]ethenyl}-2-methylphenyl)-2-methylphenyl]ethenyl]-4-(trifluoromethyl)phenyl}methyl)amino]-2-methylpropanoic Acid]: the IC50 stood at 510 nM.

`Cc1c(/C=C/c2cc(CNCCO)ccc2C(F)(F)F)cccc1-c1cccc(/C=C/c2cc(CNCCO)ccc2C(F)(F)F)c1CF` [Compound 12, 2-[({3-[(E)-2-(3-{3-[(E)-2-(5-{[(2-hydroxyethyl)amino]methyl}-2-(trifluoromethyl)phenyl)ethenyl]-2-(fluoromethyl)phenyl}-2-methylphenyl)ethenyl]-4-(trifluoromethyl)phenyl}methyl)amino]-1-ethanol]: the IC50 came out at 4.7 nM.

As for `Cc1c(/C=C/c2cc(CNCCO)ccc2C(F)(F)F)cccc1-c1cccc(/C=C/c2cc(CNCCO)ccc2C(F)(F)F)c1C` [Compound 1, 2-[({3-[(E)-2-(3-{3-[(E)-2-(5-{[(2-hydroxyethyl)amino]methyl}-2-(trifluoromethyl)phenyl)ethenyl]-2-methylphenyl}-2-methylphenyl)ethenyl]-4-(trifluoromethyl)phenyl}methyl)amino]-1-ethanol], the IC50 is 6.1 nM.

In the case of `Cc1c(/C=C/c2cc(CNCCO)ccc2C(F)(F)F)cccc1-c1cccc(/C=C/c2cc(CN[C@@](C)(CO)C(=O)O)ccc2C(F)(F)F)c1C` [Compound 2, (2S)-3-hydroxy-2-[({3-[(E)-2-(3-{3-[(E)-2-(5-{[(2-hydroxyethyl)amino]methyl}-2-(trifluoromethyl)phenyl)ethenyl]-2-methylphenyl}-2-methylphenyl)ethenyl]-4-(trifluoromethyl)phenyl}methyl)amino]-2-methylpropanoic Acid], the IC50 came out at 4.4 nM.

As for `COCCNCc1ccc(C(F)(F)F)c(/C=C/c2cccc(-c3cccc(/C=C/c4cc(CN[C@@](C)(CO)C(=O)O)ccc4C(F)(F)F)c3C)c2Cl)c1` [Compound 5, (2S)-3-hydroxy-2-[({3-[(E)-2-(3-{3-[(E)-2-(5-{[(2-methoxyethyl)amino]methyl}-2-(trifluoromethyl)phenyl)ethenyl]-2-chlorophenyl}-2-methylphenyl)ethenyl]-4-(trifluoromethyl)phenyl}methyl)amino]-2-methylpropanoic Acid], the IC50 stood at 2.3 nM.

For `Cc1c(/C=C/c2cc(CN[C@@](C)(CO)C(=O)O)ccc2C(F)(F)F)cccc1-c1cccc(/C=C/c2cc(CNCCO)ccc2C(F)(F)F)c1Cl` [Compound 6, (2S)-3-hydroxy-2-[({3-[(E)-2-(3-{3-[(E)-2-(5-{[(2-hydroxyethyl)amino]methyl}-2-(trifluoromethyl)phenyl)ethenyl]-2-chlorophenyl}-2-methylphenyl)ethenyl]-4-(trifluoromethyl)phenyl}methyl)amino]-2-methylpropanoic Acid], the IC50 was 2.8 nM.

Take `Cc1c(/C=C/c2cc(CNCCO)ccc2C(F)(F)F)cccc1-c1cccc(/C=C/c2cc(CNCCO)ccc2C(F)(F)F)c1Cl` [Compound 7, 2-[({3-[(E)-2-(3-{3-[(E)-2-(5-{[(2-hydroxyethyl)amino]methyl}-2-(trifluoromethyl)phenyl)ethenyl]-2-chlorophenyl}-2-methylphenyl)ethenyl]-4-(trifluoromethyl)phenyl}methyl)amino]-1-ethanol]: the IC50 came out at 2.6 nM.

With `Cc1c(/C=C/c2cc(CNCCO)ccc2C(F)(F)F)cccc1-c1cccc(-c2cccc(CNCCO)c2)c1C` [Compound 9, 2-({[(3-(E)-2-{3-[3-(3-{[(2-hydroxyethyl)amino]methyl}phenyl)-2-methylphenyl]-2-methylphenyl}ethenyl)-4-(trifluoromethyl)phenyl]methyl}amino)-1-ethanol], the IC50 was 7.5 nM.
